The values below come from patent publication US9265253B2, “Use of macrocyclic picolinamides as fungicides” (DOW AGROSCIENCES LLC, priority 2013, dated 2016).

Read-outs that look alike come from different tables or passages of the source.

Common to all, as to type: in vivo
The subject of one experiment is Rhyncosporium secalis. Put plainly: Barley Scald (RHYNSE) disease control. As to conditions: Hordeum vulgare, 24 h, 1 Day Protectant, read-out: Disease Control RHYNSE 1 DP. On the procedure:
Technical grades of materials were dissolved in acetone, which were then mixed with nine volumes of water containing 110 ppm Triton X-100. The fungicide solutions were applied onto wheat seedlings using an automated booth sprayer to run-off. All sprayed plants were allowed to air dry prior to further handling. All fungicides were evaluated using the aforementioned method for their activity vs. all target diseases. Wheat leaf blotch and brown rust activity were also evaluated using track spray applications, in which case the fungicides were formulated as EC formulations, containing 0.1% Trycol 5941 in the spray solutions. Wheat plants (variety Yuma) were grown from seed in a greenhouse in 50% mineral soil/50% soil-less Metro mix until the first leaf was fully emerged, with 7-10 seedlings per pot. These plants were inoculated with an aqueous spore suspension of Septoria tritici either prior to or after fungicide treatments. After inoculation the plants were kept in 100% relative humidity (one day in a dark dew chamber followed by two to three days in a lighted dew chamber at 20° C.) to permit spores to germinate and infect the leaf. The plants were then transferred to a greenhouse set at 20° C. for disease to develop. When disease symptoms were fully expressed on the 1st leaves of untreated plants, infection levels were assessed on a scale of 0 to 100 percent disease severity. Percent disease control was calculated using the ratio of disease severity on treated plants relative to untreated plants. Barley seedlings (variety Harrington) were propagated in soil-less Metro mix, with each pot having 8 to 12 plants, and used in the test when first leaf was fully emerged. Test plants were inoculated by an aqueous spore suspension of Rhyncosporium secalis 24 hr after fungicide treatments. After inoculation the plants were kept in a dew room at 20° C. with 100% relative humidity for 48 hr. The plants were then transferred to a greenhouse set at 20° C. for disease to develop. Fungicide formulation, application and disease assessment on the sprayed leaves followed the procedures as described in the Example A.

The test system of another experiment is Uncinula necator. Put plainly: Grape Powdery Mildew (UNCINE) disease control. The note with it: Erysiphe necator, topical, 24 h, 1 Day Protectant, read-out: Disease Control UNCINE 1 DP. Here is the method:
Technical grades of materials were dissolved in acetone, which were then mixed with nine volumes of water containing 110 ppm Triton X-100. The fungicide solutions were applied onto wheat seedlings using an automated booth sprayer to run-off. All sprayed plants were allowed to air dry prior to further handling. All fungicides were evaluated using the aforementioned method for their activity vs. all target diseases. Wheat leaf blotch and brown rust activity were also evaluated using track spray applications, in which case the fungicides were formulated as EC formulations, containing 0.1% Trycol 5941 in the spray solutions. Wheat plants (variety Yuma) were grown from seed in a greenhouse in 50% mineral soil/50% soil-less Metro mix until the first leaf was fully emerged, with 7-10 seedlings per pot. These plants were inoculated with an aqueous spore suspension of Septoria tritici either prior to or after fungicide treatments. After inoculation the plants were kept in 100% relative humidity (one day in a dark dew chamber followed by two to three days in a lighted dew chamber at 20° C.) to permit spores to germinate and infect the leaf. The plants were then transferred to a greenhouse set at 20° C. for disease to develop. When disease symptoms were fully expressed on the 1st leaves of untreated plants, infection levels were assessed on a scale of 0 to 100 percent disease severity. Percent disease control was calculated using the ratio of disease severity on treated plants relative to untreated plants. Grape seedlings (variety Carignane) were grown in soil-less Metro mix, with one plant per pot, and used in the test when approximately one month old. Plants were inoculated 24 hr after fungicide treatment by shaking spores from infected leaves over test plants. Plants were maintained in a greenhouse set at 20° C. until disease was fully developed. Fungicide formulation, application and disease assessment on the sprayed leaves followed the procedures as described in the Example A.

For a further experiment, the system named is Cercospora beticola. Put plainly: Leaf Spot of Sugar Beets (CERCBE) disease control. The note with it: Cercospora beticola, topical, 24 h, 1 Day Protectant, sugar beet, read-out: Disease Control CERCBE 1 DP. Here is the method: Technical grades of materials were dissolved in acetone, which were then mixed with nine volumes of water containing 110 ppm Triton X-100. The fungicide solutions were applied onto wheat seedlings using an automated booth sprayer to run-off. All sprayed plants were allowed to air dry prior to further handling. All fungicides were evaluated using the aforementioned method for their activity vs. all target diseases. Wheat leaf blotch and brown rust activity were also evaluated using track spray applications, in which case the fungicides were formulated as EC formulations, containing 0.1% Trycol 5941 in the spray solutions. Wheat plants (variety Yuma) were grown from seed in a greenhouse in 50% mineral soil/50% soil-less Metro mix until the first leaf was fully emerged, with 7-10 seedlings per pot. These plants were inoculated with an aqueous spore suspension of Septoria tritici either prior to or after fungicide treatments. After inoculation the plants were kept in 100% relative humidity (one day in a dark dew chamber followed by two to three days in a lighted dew chamber at 20° C.) to permit spores to germinate and infect the leaf. The plants were then transferred to a greenhouse set at 20° C. for disease to develop. When disease symptoms were fully expressed on the 1st leaves of untreated plants, infection levels were assessed on a scale of 0 to 100 percent disease severity. Percent disease control was calculated using the ratio of disease severity on treated plants relative to untreated plants. Sugar beet plants (variety HH88) were grown in soil-less Metro mix and trimmed regularly to maintain a uniform plant size prior to test. Plants were inoculated with a spore suspension 24 hr after fungicide treatments. Inoculated plants were kept in a dew chamber at 22° C. for 48 hr then incubated in a greenhouse set at 24° C. under a clear plastic hood with bottom ventilation until disease symptoms were fully expressed. Fungicide formulation, application and disease assessment on the sprayed leaves followed the procedures as described in the Example A.

For a further experiment, the system named is Phakopsora pachyrhizi. As to the kind of experiment: Asian Soybean Rust (PHAKPA) disease control. The note with it: for pest or weed control at 25 ppm: Phakopsora pachyrhizi, topical. Put shortly: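 Compounds in acetone diluted with nine volumes water containing 0.011% Tween 20, sprayed to run-off on two-week-old Williams 82 soybean seedlings, inoculated 3 days before or 1 day after treatment. Plants held 24 h in dark dew room at 22 °C, 100% RH, then at 23 °C; disease severity scored on sprayed leaves.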

Experiment [1] deals with Magnaporthe grisea; Anamorph: Pyricularia oryzae. As to the kind of experiment: whole plant or invertebrate. The note with it: Pyricularia oryzae, topical, 24 h, read-out: Disease Control PYRIOR 1 DP.
Setting [2] is: 24 h, 1 Day Protectant, read-out: Disease Control PHAKPA 1DP.
The mark [3] stands for this setting: 72 h, 3 Day Curative, read-out: Disease Control PHAKPA 3DC.

With `C=C[C@H]1CCC[C@H](NC(=O)c2nccc(OC)c2OCOC(C)=O)C(=O)O[C@@H](C)[C@@H]1Oc1ccccc1` [Compound F146], the pest or weed control at 100 ppm (in the experiment on Rhyncosporium secalis; with Uncinula necator; with Cercospora beticola; in experiment [1]) was 80 to 100% each time. Further, the pest or weed control at 25 ppm with Phakopsora pachyrhizi (setting [2]) and with Phakopsora pachyrhizi (setting [3]) was 80 to 100% each time.

For `COc1ccnc(C(=O)N[C@H]2CCC[C@H](Cc3ccc(F)cc3)[C@@H](OCC3CC3)[C@H](C)OC2=O)c1OCOC(C)=O` [Compound F96], the pest or weed control at 100 ppm (in the experiment with Rhyncosporium secalis; in the experiment with Uncinula necator; in the experiment on Cercospora beticola; in experiment [1]) was 80 to 100% each time. For the same molecule, the “Disease Control PHAKPA 3DC” value with Phakopsora pachyrhizi (25 ppm, 3 Day Curative) is “B (More than 0-Less than 80)”. For the same molecule, the pest or weed control at 25 ppm with Phakopsora pachyrhizi (setting [2]) was in the range of 80 to 100%.

In the case of `COc1ccnc(C(=O)N[C@H]2CCC[C@H](Cc3ccccc3)[C@@H](OCC(C)C)[C@H](C)OC2=O)c1OC(C)=O` [Compound F70], the pest or weed control at 100 ppm (in the experiment with Rhyncosporium secalis; in the experiment with Uncinula necator; with Cercospora beticola; in experiment [1]) was 80 to 100% in each case. For the same molecule, the pest or weed control at 25 ppm with Phakopsora pachyrhizi (setting [2]) is 80 to 100%; in the experiment on Phakopsora pachyrhizi (setting [3]) it was 0 to 80%.

Take `CCOCC(=O)OCOc1c(OC)ccnc1C(=O)N[C@H]1CCC[C@H](CCOC)[C@@H](Oc2ccccc2)[C@H](C)OC1=O` [Compound F183]: the pest or weed control at 100 ppm lay in the range of 80 to 100% in the experiment with Rhyncosporium secalis, 80 to 100% in the experiment with Uncinula necator, 0 to 80% in the experiment with Cercospora beticola and 80 to 100% in experiment [1]. For the same molecule, the pest or weed control at 25 ppm in the experiment on Phakopsora pachyrhizi (setting [2]) and in the experiment with Phakopsora pachyrhizi (setting [3]) was 80 to 100% each time.

On to `COc1ccnc(C(=O)N[C@H]2CCC[C@H](CCF)[C@@H](OCC(C)C)[C@H](C)OC2=O)c1OCOC(C)=O` [Compound F128, ((2-(((3S,7R,8R,9S)-7-(2-fluoroethyl)-8-isobutoxy-9-methyl-2-oxooxonan-3-yl)carbamoyl)-4-methoxypyridin-3-yl)oxy)methyl acetate], for which the pest or weed control at 100 ppm is 0 to 80% in the experiment on Rhyncosporium secalis, 80 to 100% in the experiment on Uncinula necator, 80 to 100% in the experiment with Cercospora beticola and 80 to 100% in experiment [1]. For the same molecule, the pest or weed control at 25 ppm in the experiment with Phakopsora pachyrhizi (setting [2]) and with Phakopsora pachyrhizi (setting [3]) was 80 to 100% each time.

As to `CCOCC(=O)OCOc1c(OC)ccnc1C(=O)N[C@H]1CCC[C@H](CCF)[C@@H](OCC(C)C)[C@H](C)OC1=O` [Compound F181], the pest or weed control at 100 ppm in the experiment on Rhyncosporium secalis lay within 0 to 80%; in the experiment with Uncinula necator, 0 to 80%; in the experiment with Cercospora beticola it was 0 to 80%; in experiment [1], 80 to 100%. For the same molecule, the pest or weed control at 25 ppm in the experiment on Phakopsora pachyrhizi (setting [2]) and in the experiment on Phakopsora pachyrhizi (setting [3]) was 80 to 100% each time.

In the case of `COc1ccnc(C(=O)N[C@H]2CCC[C@H](Cc3ccc(F)cc3)[C@@H](OCC3CC3)[C@H](C)OC2=O)c1OC(C)=O` [Compound F67], the pest or weed control at 100 ppm in the experiment on Rhyncosporium secalis was 80 to 100%; in the experiment with Uncinula necator, 0 to 80%; in the experiment on Cercospora beticola, 80 to 100%; in experiment [1], 80 to 100%. Also, the pest or weed control at 25 ppm in the experiment with Phakopsora pachyrhizi (setting [2]) was 80 to 100%; with Phakopsora pachyrhizi (setting [3]), 0 to 80%.

In the case of `CCCO[C@@H]1[C@@H](Cc2ccc(F)cc2)CCC[C@H](NC(=O)c2nccc(OC)c2OCOC(C)=O)C(=O)O[C@H]1C` [Compound F101], the pest or weed control at 100 ppm (in the experiment with Rhyncosporium secalis; in the experiment with Uncinula necator; with Cercospora beticola; in experiment [1]) was 80 to 100% each time. For the same molecule, the results for the pest or weed control at 25 ppm in the experiment on Phakopsora pachyrhizi (setting [2]) and with Phakopsora pachyrhizi (setting [3]) were 80 to 100% and 0 to 80%, respectively.

As for `COc1ccnc(C(=O)N[C@H]2CCC[C@H](CC(F)F)[C@@H](Oc3ccccc3)[C@H](C)OC2=O)c1OCOC(C)=O` [Compound F138], the pest or weed control at 100 ppm with Rhyncosporium secalis is 0 to 80%; with Uncinula necator it was 0 to 80%; in the experiment with Cercospora beticola, 80 to 100%; in experiment [1], 80 to 100%. The pest or weed control at 25 ppm with Phakopsora pachyrhizi (setting [2]) and in the experiment on Phakopsora pachyrhizi (setting [3]) was 80 to 100% in each case.

Turning to `COc1ccnc(C(=O)N[C@H]2CCC[C@H](CC(F)F)[C@@H](Oc3ccccc3)[C@H](C)OC2=O)c1OC(C)=O` [Compound F82], the pest or weed control at 100 ppm with Rhyncosporium secalis fell in the range of 0 to 80%; in the experiment with Uncinula necator it was 0 to 80%; in the experiment with Cercospora beticola, 80 to 100%; in experiment [1], 80 to 100%. The pest or weed control at 25 ppm in the experiment on Phakopsora pachyrhizi (setting [2]) and with Phakopsora pachyrhizi (setting [3]) was 80 to 100% each time.

Consider `CCOCC(=O)OCOc1c(OC)ccnc1C(=O)N[C@H]1CCC[C@H](Cc2ccc(F)cc2F)[C@@H](OC(=O)c2ccco2)[C@H](C)OC1=O` [Compound F193], for which the pest or weed control at 100 ppm lay in the range of 80 to 100% with Rhyncosporium secalis, 0 to 80% in the experiment on Uncinula necator, 80 to 100% with Cercospora beticola and 80 to 100% in experiment [1]. Also, the pest or weed control at 25 ppm with Phakopsora pachyrhizi (setting [2]) and in the experiment with Phakopsora pachyrhizi (setting [3]) was 0 to 80% throughout.

In the case of `COc1ccnc(C(=O)N[C@H]2CCC[C@H](Cc3ccccc3)[C@@H](OCC3CC3)[C@H](C)OC2=O)c1OCOC(=O)C(C)C` [Compound F152], the pest or weed control at 100 ppm with Rhyncosporium secalis lay in the range of 80 to 100%; in the experiment with Uncinula necator it was 0 to 80%; in the experiment on Cercospora beticola, 80 to 100%; in experiment [1], 80 to 100%. Moreover, the pest or weed control at 25 ppm in the experiment with Phakopsora pachyrhizi (setting [2]) and in the experiment on Phakopsora pachyrhizi (setting [3]) was 80 to 100% in each case.

For the molecule `CCCO[C@@H]1[C@@H](Cc2ccccc2)CCC[C@H](NC(=O)c2nccc(OC)c2OCOC(=O)COCC)C(=O)O[C@H]1C` [Compound F174], the pest or weed control at 100 ppm (in the experiment with Rhyncosporium secalis; with Uncinula necator; in the experiment with Cercospora beticola; in experiment [1]) was 80 to 100% each time. The pest or weed control at 25 ppm in the experiment with Phakopsora pachyrhizi (setting [2]) fell in the range of 80 to 100%; in the experiment with Phakopsora pachyrhizi (setting [3]) it was 0 to 80%.
